Data on 3 molecules can be found in patent US20230405144A1, “INDUCIBLE CELL DEATH SYSTEMS” (priority 2020, published 2023).

What all share (type): cell-based
The test system of data set [1] is HEK293T cells. Briefly: Mifepristone-induced dimerization of iCasp9: annexin V / Sytox Red staining by flow cytometry. Conditions: cells transduced with SB03080, 10 uM Mifepristone, 24 hours. How it is done: Cell engineering and assessment: 24 hours before transduction 50,000 HEK293T cells were plated on a 24-well dish. Next day, cells were transduced with 50,000 pg of SB03080 (Progesterone receptor domain-Gly-Ser linker-iCasp9-IRES-red fluorescent protein) (based on p24 titer). Transduced cells were split into drug free media or media with 10 uM of Mifepristone 48 hours after transduction. 24 hours later, samples were stained for annexin V, a marker of apoptosis, and Sytox Red a live/dead stain and quantified by flow cytometry.
Cells were lentivirally transduced to express the toxin Caspase-9 with an IRES-red fluorescent protein (mKate) expressed under control of an SFFV promoter. The Caspase-9 protein includes a progesterone receptor domain. Upon Mifepristone addition, monomers of pro-apoptotic Caspase-9 oligomerize through binding of the progesterone receptor domain to Mifepristone (see FIG. 3A and System 1; chemical inducer of dimerization that activates the pro-cell death-inducing protein), as described in Example 1.

Data set [2] deals with HEK293T cells. Briefly: Screening pro-apoptotic toxins: Incucyte confluency over 11 days. How it is done: Cell engineering and assessment: 5,000 HEK293T cells were plated in a 96-well flat bottom TC treated plate. Cells were transduced same day with 5,000 pg of specified constructs (based on p24 titer). Plates were transferred to the Incucyte where images of the cell layer were captured at 4 images per well every 2 hours over the course of 11 days with 10× objective. Confluency was calculated using the Incucyte basic pipeline software to map phase overlay. Cells were split down to 5,000 cells per well on day 4.
Cells were then lentivirally transduced to express the indicated cell-death inducing toxin.

For data set [3], the system named is HEK293T cell line TL06776 (SB04397). Briefly: ACP repression of toxins: Incucyte confluency over 7 days. As to conditions: BAX expressed in HEK293T cells that do not express the ACP. The protocol: Cell engineering and assessment: 5,000 HEK293T cells were plated in a 96-well flat bottom TC treated plate. Cells were transduced same day with 5,000 pg of specified constructs (based on p24 titer). Plate transferred to the Incucyte where images of the cell layer were captured at 4 images per well every 2 hours over the course of 7 days with 10× objective. Confluency was calculated using the Incucyte basic pipeline software to map phase overlay in each well.
Stable cell lines were generated to express an ACP including a transcriptional repressor. Cells were then lentivirally transduced to express the cell-death inducing toxin BAX or iCasp-9 under control of an ACP responsive promoter. The ACP transcriptional repressor includes a degron that in response to addition of an IMiD promotes ubiquitin pathway-mediated degradation of the peptides. Upon IMiD addition, degradation of the repressor leads to expression of the cell-death inducing peptide (see System 3; degron-tagged transcriptional repressor), as described in Example 1. […]
The cell line TL06776 was assessed following expression of degron domain-ZF-minKrab (SB04397) and percent confluency was quantified from pictures taken every 2 hours over course of 7 days in triplicate. […] Viability was further assessed as the ratio of confluency of a given sample relative to the confluency of non-transduced samples.

On to `CC#C[C@]1(O)CC[C@H]2[C@@H]3CCC4=CC(=O)CCC4=C3[C@@H](c3ccc(N(C)C)cc3)C[C@@]21C` [Mifepristone], for which the “cell death (both apoptotic and by live/dead)” value in data set [1] is recorded as “increased cell death”.

For “Bax: cell-death inducing toxin expressed from constructs SB05403 / SB05406”, the “decline in viability of a heterogeneous population” value in data set [2] is not above 70%. This molecule came in with a decline in viability in data set [3] of 70%.

B1: Smac/Diablo: cell-death inducing toxin expressed from constructs SB05405 / SB05408 (protein)
chain: MAALKSWLSRSVTSFFRYRQCLCVPVVANFKKRCFSELIRPWHKTVTIGFGVTLCAVPIAQKSEPHSLSSEALMRRAVSLVTDSTSTFLSQTTYALIEAITEYTKAVYTLTSLYRQYTSLLGKMNSEEEDEVWQVIIGARAEMTSKHQEYLKLETTWMTAVGLSEMAAEAAYQTGADQASITARNHIQLVKLQVEEVHQLSRKAETKLAEAQIEELRQKTQEEGEERAESEQEAYLRED
modifications: Description of Unknown: Smac/DIABLO sequence
notes: cell-death inducing toxin expressed from constructs SB05405 / SB05408
With B1, the “decline in viability of a heterogeneous population” value in data set [2] was “did not”.
